≈ marks a conversion by molar mass, not a printed value. Read-outs that look alike come from different tables or passages of the source.
How the values were obtained:
Candida glabrata = assay: MIC, RPMI medium, Candida glabrata; format: cell-based; conditions: Nakaseomyces glabratus, read-out: MIC C. glabrata
Experimental: (§1) Measurement of Minimum Inhibitory Concentrations (MICs)
(§2) Between 1 and 5 mgs of compound were accurately weighed out into a sterile Eppendorf tube. The compound was dissolved in DMSO to give a solution containing 5 mg/ml. Tubes were stored at −20° C. until required.
(§3) On the day of testing thawed solutions were vortex mixed to ensure homogeneity. 30 μl of solution was removed and added to 570 μl of sterile water in a separate sterile Eppendorf. The thoroughly mixed solution was used to prepare a series of doubling dilutions in water, in a deep well plate. Eleven replicate plates were prepared using a Minitrak by aspirating 20 μl from each well into eleven clear polystyrene 96 well plates.
(§4) Spores of Aspergillus spp (Aspergillus fumigatus, Aspergillus terreus, Aspergillus niger and Aspergillus flavus) were harvested from cultures grown on Sabarauds agar for 5 days, and resuspended in PBS/Tween 80 to approx 1×10^7 cfu/ml Other filamentous fungi (Fusarium solani, Scedosporium spp., Trichophyton spp., Absidia corymbifera), were grown on Sabarauds agar for 2-10 days and spores/hyphae resuspended in PBS/Tween to give approx 1×10^7 cfU/ml. Candida species (Candida albicans, Candida glabrata, Candida krusei, Candida parapsilosis and Candida tropicalis) were grown on Sabarauds agar, cells were harvested from the agar using a sterile loop and resuspended in PBS/Tween 80 to approx 1×10^6 cfu/ml. Each organism suspension was diluted in RPMI medium, containing 2% glucose and 0.135M MOPS buffer (pH7.0) to 2×10^4 cfu/ml for Aspergillus spp and other filamentous fungi and 2×10^3 cfu/ml for yeast. 80 μl of an organism suspension was added to each well of the plate containing drug dilutions.
(§5) This produced MIC plates with a drug range 50-0.05 mg/L and organism inocula of 1-2×10^4 cfu/ml for Aspergillus spp and other filamentous fungi and 1-2×10^3 cfu/ml for yeasts. All plates were incubated for 24-48 hrs at 35° C. Growth was assessed by monitoring the optical density at 485 nm for each well. The MIC of a compound is the lowest drug concentration that inhibits growth of an organism by >80% compared with a drug free control. MICs are recorded as mg/L. Other growth media can be used for susceptibility testing, and the activity of the described compounds can also be assessed in a medium comprising, 1% glucose, 1% ammonium chloride and 0.5% yeast extract (YAG medium). To perform MIC tests in this medium, dilutions of compounds are prepared in microtitre plates as described above. Fungal strains to be tested are grown and harvested in an identical manner to that described above, each organism suspension is then diluted in YAG medium to 2×10^4 cfu/ml for Aspergillus spp and other filamentous fungi and 2×10^3 cfu/ml for yeast. 80 μl of an organism suspension was added to each well of the plate containing drug dilutions. This produced MIC plates with a drug range 50-0.05 mg/L and organism inocula of 1-2×10^4 cfu/ml for Aspergillus spp and other filamentous fungi and 1-2×10^3 cfu/ml for yeasts. All plates were incubated for 24 hrs at 35° C. Growth was assessed by monitoring the optical density at 485 nm for each well. The MIC of a compound is the lowest drug concentration that inhibits growth of an organism by >70% compared with a drug free control. MICs are recorded as mg/L. In cases where the MIC of an organism is […]0.05 mg/L the MIC is repeated using a concentration range of 0.5-0.0005 mg/L. MIC tests in YAG medium have more clear-cut endpoints and have slightly lower MICS than those performed in RPMI medium.
(§6) The following organisms were tested: Aspergillus fumigatus AF293 and Aspergillus fumigatus AF210, Aspergillus niger, Aspergillus terreus, Aspergillus favus, Candida albicans, Candida krusei, Candida tropicalis, Candida glabrata, Candida parapsilosis, Trichophyton rubrum, Trichophyton mentagrophytes, Scedosporium prolificans, Scedosporium apiospermum, Absidia corymbifera, Fusarium solani.

Candida albicans = assay: MIC, RPMI medium, Candida albicans; format: cell-based; conditions: read-out: MIC C. albicans
Experimental: as §1, §2, §3, §4, §5, §6

Candida tropicalis = assay: MIC, RPMI medium, Candida tropicalis; format: cell-based; conditions: read-out: MIC C. tropicalis
Experimental: as §1, §2, §3, §4, §5, §6

Candida krusei = assay: MIC, RPMI medium, Candida krusei; format: cell-based; conditions: Pichia kudriavzevii, read-out: MIC C. krusei
Experimental: as §1, §2, §3, §4, §5, §6

Candida parapsilosis = assay: MIC, RPMI medium, Candida parapsilosis; format: cell-based; conditions: Lodderomyces parapsilosis, read-out: MIC C. parapsilosis
Experimental: as §1, §2, §3, §4, §5, §6

[1] = system: Aspergillus fumigatus AF210; assay: MIC, YAG medium, Aspergillus fumigatus AF210; format: cell-based; conditions: Aspergillus fumigatus, AF210; YAG medium; read-out: MIC A Fum. 210
Method in brief: (§7)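 Broth microdilution over doubling dilutions (50-0.05 mg/L). C. albicans in RPMI with 2% glucose and 0.135M MOPS (pH7.0), 1-2×10^3 cfu/ml, 24-48 hrs at 35° C; MIC = >80% growth inhibition by OD485. Aspergillus spp. in YAG (1% glucose, 1% ammonium chloride, 0.5% yeast extract), 1-2×10^4 cfu/ml, 24 hrs, >70% inhibition.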

Aspergillus flavus = assay: MIC, YAG medium, Aspergillus flavus; format: cell-based; conditions: Aspergillus flavus, YAG medium
Method in brief: as §7

Aspergillus niger = assay: MIC, YAG medium, Aspergillus niger; format: cell-based; conditions: Aspergillus niger, YAG medium
Method in brief: as §7

Aspergillus terreus = assay: MIC, YAG medium, Aspergillus terreus; format: cell-based; conditions: Aspergillus terreus, YAG medium
Method in brief: as §7

[2] = system: Aspergillus fumigatus AF293; assay: MIC, YAG medium, Aspergillus fumigatus AF293; format: cell-based; conditions: Aspergillus fumigatus, AF293; YAG medium; read-out: MIC A Fum. 293
Method in brief: as §7

A Terreus 49 = assay: MIC, YAG medium, A Terreus 49; format: cell-based, Aspergillus terreus; conditions: Aspergillus terreus; YAG medium; read-out: MIC A Terreus 49
Method in brief: as §7

SMILES	MIC (Candida glabrata) [µg/mL]	MIC (Candida albicans) [µg/mL]	MIC (Candida tropicalis) [µg/mL]	MIC (Candida krusei) [µg/mL]	MIC (Candida parapsilosis) [µg/mL]	MIC [1] [µg/mL]	MIC (Aspergillus flavus; read-out: MIC A Flavus 01) [µg/mL]	MIC (Aspergillus niger; read-out: MIC A Niger 1) [µg/mL]	MIC (Aspergillus terreus; read-out: MIC A Terreus 4) [µg/mL]	MIC [2] [µg/mL]	MIC (A Terreus 49) [µg/mL]	MIC (Aspergillus flavus; read-out: MIC A Flavus) [µg/mL]	MIC (Aspergillus niger; read-out: MIC A Niger) [µg/mL]	MIC (Aspergillus terreus; read-out: MIC A Terreus) [µg/mL]
COCCNC(=O)C(=O)c1c(-c2cccnc2)cc2ccccn12 [Example 185, N-(2-Methoxy-ethyl)-2-oxo-2-(2-pyridin-3-yl-indolizin-3-yl)-acetamide]	> 50	50 (≈ 155 µM)	12.5 (≈ 38.7 µM)	> 50	50 (≈ 155 µM)	–	–	–	–	–	–	–	–	–
O=C(Nc1ccc(-c2nnn[nH]2)cc1)C(=O)c1c(-c2ccccc2)cc2ccccn12 [Example 271, 2-Oxo-2-(2-phenyl-indolizin-3-yl)-N-[4-(1H-tetrazol-5-yl)-phenyl]-acetamide]	50 (≈ 122 µM)	3.1 (≈ 7.59 µM)	25 (≈ 61.2 µM)	50 (≈ 122 µM)	50 (≈ 122 µM)	50 (≈ 122 µM)	50 (≈ 122 µM)	50 (≈ 122 µM)	25 (≈ 61.2 µM)	50 (≈ 122 µM)	25 (≈ 61.2 µM)	–	–	–
CN(C)c1ccc(NC(=O)C(=O)c2c(-c3ccccc3)cc3ccccn23)cc1C(=O)O [Example 274, 2-Dimethylamino-5-[2-oxo-2-(2-phenyl-indolizin-3-yl)-acetylamino]-benzoic acid]	> 50	3.1 (≈ 7.25 µM)	12.5 (≈ 29.2 µM)	> 50	50 (≈ 117 µM)	> 50	50 (≈ 117 µM)	> 50	> 50	50 (≈ 117 µM)	12.5 (≈ 29.2 µM)	–	–	–
O=C(O)COc1cccc(NC(=O)C(=O)c2c(-c3ccccc3)cc3ccccn23)c1 [Example 294, {3-[2-Oxo-2-(2-phenyl-indolizin-3-yl)-acetylamino]-phenoxy}-acetic acid]	–	–	–	–	–	> 50	25 (≈ 60.3 µM)	50 (≈ 121 µM)	50 (≈ 121 µM)	25 (≈ 60.3 µM)	25 (≈ 60.3 µM)	–	–	–
C[S+]1CCN(c2ccc(NC(=O)C(=O)c3c(-c4ccccc4)cc4ccccn34)cc2)CC1.[I-] [Example 299, 1-Methyl-4-{4-[2-oxo-2-(2-phenyl-indolizin-3-yl)-acetylamino]-phenyl}-thiomorpholin-1-ium iodide]	–	–	–	–	–	6.25	3.1	12.5	3.1	6.25	1.6	–	–	–

More lines, now with the values ahead:

MIC (Candida glabrata) [µg/mL]	MIC (Candida albicans) [µg/mL]	MIC (Candida tropicalis) [µg/mL]	MIC (Candida krusei) [µg/mL]	MIC (Candida parapsilosis) [µg/mL]	MIC [1] [µg/mL]	MIC (Aspergillus flavus; read-out: MIC A Flavus 01) [µg/mL]	MIC (Aspergillus niger; read-out: MIC A Niger 1) [µg/mL]	MIC (Aspergillus terreus; read-out: MIC A Terreus 4) [µg/mL]	MIC [2] [µg/mL]	MIC (A Terreus 49) [µg/mL]	MIC (Aspergillus flavus; read-out: MIC A Flavus) [µg/mL]	MIC (Aspergillus niger; read-out: MIC A Niger) [µg/mL]	MIC (Aspergillus terreus; read-out: MIC A Terreus) [µg/mL]	SMILES
25 (≈ 61.1 µM)	> 50	> 50	> 50	> 50	0.4 (≈ 0.977 µM)	0.05 (≈ 0.122 µM)	0.4 (≈ 0.977 µM)	0.1 (≈ 0.244 µM)	0.8 (≈ 1.95 µM)	–	–	–	–	O=C(Nc1ccc(C(F)(F)F)cc1)C(=O)c1c(-c2cccnc2)cc2ccccn12 [Example 212, 2-Oxo-2-(2-pyridin-3-yl-indolizin-3-yl)-N-(4-trifluoromethyl-phenyl)-acetamide]
50 (≈ 116 µM)	6.25 (≈ 14.5 µM)	25 (≈ 57.8 µM)	50 (≈ 116 µM)	50 (≈ 116 µM)	0.015 (≈ 0.0347 µM)	0.05 (≈ 0.116 µM)	0.05 (≈ 0.116 µM)	0.05 (≈ 0.116 µM)	0.05 (≈ 0.116 µM)	0.12 (≈ 0.277 µM)	–	–	–	O=C(Nc1ccc(Nc2ccccn2)cc1)C(=O)c1c(-c2ccccc2)cc2ccccn12 [Example 270, 2-Oxo-2-(2-phenyl-indolizin-3-yl)-N-[4-(pyridin-2-ylamino)-phenyl]-acetamide]
50 (≈ 114 µM)	1.6 (≈ 3.66 µM)	6.25 (≈ 14.3 µM)	50 (≈ 114 µM)	25 (≈ 57.1 µM)	0.5 (≈ 1.14 µM)	0.062 (≈ 0.142 µM)	0.5 (≈ 1.14 µM)	0.12 (≈ 0.274 µM)	0.25 (≈ 0.571 µM)	0.12 (≈ 0.274 µM)	–	–	–	O=C1CCN(c2ccc(NC(=O)C(=O)c3c(-c4ccccc4)cc4ccccn34)cc2)CC1 [Example 272, 2-Oxo-N-[4-(4-oxo-piperidin-1-yl)-phenyl]-2-(2-phenyl-indolizin-3-yl)-acetamide]
> 50	25 (≈ 53.5 µM)	> 50	> 50	> 50	0.03 (≈ 0.0642 µM)	0.03 (≈ 0.0642 µM)	0.4 (≈ 0.856 µM)	0.03 (≈ 0.0642 µM)	0.05 (≈ 0.107 µM)	0.015 (≈ 0.0321 µM)	–	–	–	COC(=O)C1CCCN1c1ccc(NC(=O)C(=O)c2c(-c3ccccc3)cc3ccccn23)cc1 (stereo not shown) [Example 275, 1-{4-[2-Oxo-2-(2-phenyl-indolizin-3-yl)-acetylamino]-phenyl}-pyrrolidine-2-carboxylic acid methyl ester]
–	–	–	–	–	0.25 (≈ 0.612 µM)	–	–	–	0.25 (≈ 0.612 µM)	0.015 (≈ 0.0367 µM)	0.031 (≈ 0.0759 µM)	0.015 (≈ 0.0367 µM)	0.015 (≈ 0.0367 µM)	O=C(Nc1ccc(C(F)(F)F)cc1)C(=O)c1c(-c2ccccc2)cc2ccccn12 [Example 304, 2-Oxo-2-(2-phenyl-indolizin-3-yl)-N-(4-trifluoromethyl-phenyl)-acetamide]
–	–	–	–	–	0.5 (≈ 1.22 µM)	–	–	–	0.5 (≈ 1.22 µM)	0.015 (≈ 0.0367 µM)	0.062 (≈ 0.151 µM)	0.015 (≈ 0.0367 µM)	0.031 (≈ 0.0757 µM)	O=C(Nc1ccc(Cl)cc1Cl)C(=O)c1c(-c2ccccc2)cc2ccccn12 [Example 305, N-(2,4-Dichloro-phenyl)-2-oxo-2-(2-phenyl-indolizin-3-yl)-acetamide]
–	–	–	–	–	0.062 (≈ 0.152 µM)	–	–	–	0.12 (≈ 0.294 µM)	0.002 (≈ 0.0049 µM)	0.008 (≈ 0.0196 µM)	0.015 (≈ 0.0367 µM)	0.004 (≈ 0.00979 µM)	O=C(Nc1cccc(C(F)(F)F)c1)C(=O)c1c(-c2ccccc2)cc2ccccn12 [Example 306, 2-Oxo-2-(2-phenyl-indolizin-3-yl)-N-(3-trifluoromethyl-phenyl)-acetamide]
–	–	–	–	–	0.05 (≈ 0.118 µM)	–	–	–	0.008 (≈ 0.0189 µM)	0.001 (≈ 0.00236 µM)	0.008 (≈ 0.0189 µM)	0.008 (≈ 0.0189 µM)	0.002 (≈ 0.00472 µM)	O=C(Nc1ccc(N2CCCCC2)cc1)C(=O)c1c(-c2ccccc2)cc2ccccn12 [Example 307, 2-Oxo-2-(2-phenyl-indolizin-3-yl)-N-(4-piperidin-1-yl-phenyl)-acetamide]
